Test results reported in patent publication US20120065152A1 (SHIRE LLC, priority 2010, published 2012).
Where “and” joins values, the source holds several entries; their conditions need not be identical. Identical values can stand only once. Counter-ions that a name gives are not always drawn.

Columns and labels:
[1] = Solubility
[2] = Stability studies on guanfacine prodrugs in buffers; format: physicochemical
[3] = DMSO, organic solvent or mixture, Solubility, in DMSO
[4] = water/CH3CN (1:1), aqueous with cosolvent or surfactant or cyclodextrin, Solubility, in water/CH3CN (1:1)
[5] = pH 1.2, 37° C., 0.1M HCl/NaCl buffer, 1 h
[6] = pH 1.2, 37° C., 0.1M HCl/NaCl buffer, time 0
[7] = pH 3.0, 20° C., 0.1M citrate buffer, 2 h
[8] = pH 3.0, 20° C., 0.1M citrate buffer, time 0
[9] = pH 6.8, 37° C., 0.1M phosphate buffer, 2 h
[10] = pH 6.8, 37° C., 0.1M phosphate buffer, time 0
[11] = pH 7.4, 37° C., 0.1M phosphate buffer, 2 h
[12] = pH 7.4, 37° C., 0.1M phosphate buffer, time 0
[13] = pH 1.2, 37° C., 0.1M HCl/NaCl buffer, time 0, Hydrochloride
[14] = pH 6.8, 37° C., 0.1M phosphate buffer, 2 h, Hydrochloride
[15] = pH 7.4, 37° C., 0.1M phosphate buffer, 2 h, Hydrochloride
[16] = DMSO, organic solvent or mixture

| SMILES | solubility [1, 3] | solubility ([1]; water, Solubility, in water) | Active drug [2, 5] | Active drug [2, 6] | Pro-drug [2, 6] | Active drug [2, 7] | Active drug [2, 8] | Pro-drug [2, 8] | Active drug [2, 9] | Active drug [2, 10] | Pro-drug [2, 10] | Active drug [2, 11] | Active drug [2, 12] | Pro-drug [2, 12] | further results |
| --- | --- | --- | --- | --- | --- | --- | --- | --- | --- | --- | --- | --- | --- | --- | --- |
| Cl.NC(=NC(=O)Cc1c(Cl)cccc1Cl)NC(=O)OCC1CC1 [Compound 31, {N′-[2-(2,6-Dichloro-phenyl)acetyl]-guanidino-carbonyloxy}methylcyclopropane Hydrochloride] | > 10000 µg/mL | < 1000 µg/mL | 0.6 | 0.0 | 100 | 0.0 | 0.0 | 100 | 0.0 | 0.0 | 100 | 0.0 | 0.0 | 100 | solubility [1, 4]: > 5000 µg/mL; Pro-drug ([2]; pH 1.2, 37° C., 0.1M HCl/NaCl buffer, 1 h, listed as Guanfacine Cyclopropylmethyl Carbamate Hydrochloride, Hydrochloride): 92.9 and 92.7; Pro-drug ([2]; pH 3.0, 20° C., 0.1M citrate buffer, 2 h, listed as Guanfacine Cyclopropylmethyl Carbamate Hydrochloride, Hydrochloride): 98.3 and 98.5; Pro-drug ([2]; pH 6.8, 37° C., 0.1M phosphate buffer, 2 h, listed as Guanfacine Cyclopropylmethyl Carbamate Hydrochloride, Hydrochloride): 97.6 and 97.4; Pro-drug ([2]; pH 7.4, 37° C., 0.1M phosphate buffer, 2 h, listed as Guanfacine Cyclopropylmethyl Carbamate Hydrochloride, Hydrochloride): 99.6 and 99.5 |
| NC(=NC(=O)Cc1c(Cl)cccc1Cl)NC(=O)OCc1ccccc1 [Compound 10, {N′-[2-(2,6-Dichloro-phenyl)-acetyl]guanidino-carbonyloxy}toluene Hydrochloride] | > 10000 µg/mL | < 1000 µg/mL | – | – | – | – | – | – | – | – | – | – | – | – | solubility ([1]; CH3CN, organic solvent or mixture, Solubility, in CH3CN): > 5000 µg/mL |
| CC(C)(C)COC(=O)NC(N)=NC(=O)Cc1c(Cl)cccc1Cl.Cl [Compound 9, 1-{N′[2-(2,6-Dichloro-phenyl)-acetyl]guanidinocarbonyloxy}-2,2-dimethylpropane Hydrochloride] | > 10000 µg/mL | < 1000 µg/mL | 0.0 | 0.0 | 100 | 0.0 | 0.0 | 100 | 0.0 | 0.0 | 100 | 0.0 | 0.0 | 100 | solubility [1, 4]: > 1000 µg/mL; Pro-drug ([2]; pH 1.2, 37° C., 0.1M HCl/NaCl buffer, 1 h, listed as Guanfacine Neopentyl Carbamate Hydrochloride, Hydrochloride): 94.7 and 93.9; Pro-drug ([2]; pH 3.0, 20° C., 0.1M citrate buffer, 2 h, listed as Guanfacine Neopentyl Carbamate Hydrochloride, Hydrochloride): 96.1 and 96.8; Pro-drug ([2]; pH 6.8, 37° C., 0.1M phosphate buffer, 2 h, listed as Guanfacine Neopentyl Carbamate Hydrochloride, Hydrochloride): 98.3 and 97.9; Pro-drug ([2]; pH 7.4, 37° C., 0.1M phosphate buffer, 2 h, listed as Guanfacine Neopentyl Carbamate Hydrochloride, Hydrochloride): 99.2 and 98.5 |
| CO[C@H]1O[C@H](COC(=O)NC(=N)NC(=O)Cc2c(Cl)cccc2Cl)[C@@H](O)[C@H](O)[C@H]1O.Cl [Compound 16, 2-(2,6-dichlorophenyl)-N-(N-((((2R,3S,4S,5R,6S)-3,4,5-trihydroxy-6-methoxytetrahydro-2H-pyran-2-yl)methoxy)carbonyl)carbamimidoyl)acetamide hydrochloride] | – | – | – | – | – | – | – | – | – | – | – | – | – | – | Solubility (in words) [1]: water, DMSO |
| CC(C)(C)OC(=O)NC(=N)NC(=O)Cc1c(Cl)cccc1Cl.Cl [Guanfacine Tert-Butyl Carbamate Hydrochloride] | – | – | – | – | – | – | 0.0 | 100 | – | 0.0 | 100 | – | 0.0 | 100 | solubility ([1]; in 2 mL CH3CN/1 mL H2O): > 5 mg; solubility ([1]; in DMSO): > 10000 µg/mL; solubility ([1]; in water): < 1000 µg/mL; Pro-drug [2, 5]: 0.0; Active drug ([2]; pH 1.2, 37° C., 0.1M HCl/NaCl buffer, 1 h, Hydrochloride): 99.7 and 100; Active drug [2, 13]: 8.8 and 9.5; Pro-drug [2, 13]: 91.2 and 90.5; Pro-drug [2, 7]: 34.5; Active drug ([2]; pH 3.0, 20° C., 0.1M citrate buffer, 2 h, Hydrochloride): 66.6 and 65.5; Active drug [2, 14]: 14.2 and 15.2; Pro-drug [2, 14]: 83.6 and 84.9; Active drug [2, 15]: 11.0 and 11.2; Pro-drug [2, 15]: 84.2 and 82.7 |
| N=C(NC(=O)Cc1c(Cl)cccc1Cl)NC(=O)OC[C@@H](N)Cc1cnc[nH]1.O=C(O)C(F)(F)F.O=C(O)C(F)(F)F.O=C(O)C(F)(F)F [Guanfacine-(S)-histidinyl carbamate Tri-trifluoroacetate] | – | – | 1.7 and 1.8 | 0.5 and 0.6 | 99.5 and 99.4 | 1.2 and 1.3 | 0.4 and 0.5 | 99.6 and 99.5 | 87.1 and 88.1 | 1.6 and 1.4 | 98.4 and 98.6 | 85.4 and 85.8 | – | 99.2 and 98.1 | solubility ([1]; in DMSO): > 20000 µg/mL; solubility ([1]; in water): > 20000 µg/mL; Pro-drug [2, 5]: 84.7 and 83.3; Pro-drug [2, 7]: 98.1 and 97.8; Pro-drug [2, 9]: 0.0; Pro-drug [2, 11]: 0.0 |
| Cl.N=C(NC(=O)Cc1c(Cl)cccc1Cl)NC(=O)Oc1cccc(C(=O)O)c1 [Compound 28, 3-[({[2-(2,6-dichlorophenyl)acetamido]methanimidoyl}carbamoyl)oxy]benzoic acid hydrochloride] | – | – | – | – | – | – | – | – | – | – | – | – | – | – | Solubility (in words) [1]: insoluble in water; solubility [1, 16]: > 20000 µg/mL |
| CC(C)[C@@H]1CC[C@@H](C)C[C@H]1OC(=O)NC(N)=NC(=O)Cc1c(Cl)cccc1Cl.Cl [Compound 29, 1-(R)-{N′-[2-(2,6-Dichloro-phenyl)-acetyl]-guanidinocarbonyloxy}-2-(S)-isopropyl-5-(R)-methyl-cyclohexane Hydrochloride] | > 10000 µg/mL | < 1000 µg/mL | 0.0 | 0.0 | 100 | 0.0 | 0.0 | 100 | 0.0 | 0.0 | 100 | 0.0 | 0.0 | 100 | solubility ([1]; 2.5 mL CH3CN/1 mL H2O, aqueous with cosolvent or surfactant or cyclodextrin, Solubility, in 2.5 mL CH3CN/1 mL H2O): > 1430 µg/mL; Pro-drug ([2]; pH 1.2, 37° C., 0.1M HCl/NaCl buffer, 1 h, listed as Guanfacine-(−)-Menthyl Carbamate Hydrochloride, Hydrochloride): 94.6 and 95.5; Pro-drug ([2]; pH 3.0, 20° C., 0.1M citrate buffer, 2 h, listed as Guanfacine-(−)-Menthyl Carbamate Hydrochloride, Hydrochloride): 98.3 and 99.6; Pro-drug ([2]; pH 6.8, 37° C., 0.1M phosphate buffer, 2 h, listed as Guanfacine-(−)-Menthyl Carbamate Hydrochloride, Hydrochloride): 97.9 and 97.3; Pro-drug ([2]; pH 7.4, 37° C., 0.1M phosphate buffer, 2 h, listed as Guanfacine-(−)-Menthyl Carbamate Hydrochloride, Hydrochloride): 94.7 and 96.9 |
| CC(C)COC(=O)NC(N)=NC(=O)Cc1c(Cl)cccc1Cl.Cl [Compound 8, 1-{N′-[2-(2,6-Dichloro-phenyl)-acetyl]-guanidinocarbonyloxy}-2-methylpropane Hydrochloride] | > 10000 µg/mL | < 1000 µg/mL | 0.0 | 0.0 | 100 | 0.0 | 0.0 | 100 | 0.0 | 0.0 | 100 | 0.0 | 0.0 | 100 | solubility [1, 4]: > 1000 µg/mL; Pro-drug ([2]; pH 1.2, 37° C., 0.1M HCl/NaCl buffer, 1 h, listed as Guanfacine Isobutyl Carbamate Hydrochloride, Hydrochloride): 95.1 and 95.0; Pro-drug ([2]; pH 3.0, 20° C., 0.1M citrate buffer, 2 h, listed as Guanfacine Isobutyl Carbamate Hydrochloride, Hydrochloride): 95.2 and 95.3; Pro-drug ([2]; pH 6.8, 37° C., 0.1M phosphate buffer, 2 h, listed as Guanfacine Isobutyl Carbamate Hydrochloride, Hydrochloride): 98.2 and 97.9; Pro-drug ([2]; pH 7.4, 37° C., 0.1M phosphate buffer, 2 h, listed as Guanfacine Isobutyl Carbamate Hydrochloride, Hydrochloride): 95.3 and 96.7 |
| [2H]C([2H])([2H])C([2H])([2H])OC(=O)NC(=N)NC(=O)Cc1c(Cl)cccc1Cl [Compound 13, {N′-[2-(2,6-Dichloro-phenyl)-acetyl]-guanidinocarbonyloxy} d5-ethane] | > 10000 µg/mL | < 1000 µg/mL | 0.0 | 0.0 | 100 | 0.0 | 0.0 | 100 | 0.0 | 0.0 | 100 | 0.0 | 0.0 | 100 | Pro-drug ([2]; pH 1.2, 37° C., 0.1M HCl/NaCl buffer, 1 h, listed as Guanfacine D5-Ethyl Carbamate): 97.6 and 96.6; Pro-drug ([2]; pH 3.0, 20° C., 0.1M citrate buffer, 2 h, listed as Guanfacine D5-Ethyl Carbamate): 98.7 and 98.3; Pro-drug ([2]; pH 6.8, 37° C., 0.1M phosphate buffer, 2 h, listed as Guanfacine D5-Ethyl Carbamate): 99.4 and 99.2; Pro-drug ([2]; pH 7.4, 37° C., 0.1M phosphate buffer, 2 h, listed as Guanfacine D5-Ethyl Carbamate): 99.4 and 99.2 |
| N=C(NC(=O)Cc1c(Cl)cccc1Cl)NC(=O)Oc1ccc(CC(=O)O)cc1 [Compound 25, Hydrochloride] | – | – | – | – | – | – | – | – | – | – | – | – | – | – | solubility [1, 16]: > 23000 µg/mL; solubility ([1]; water): < 2300 µg/mL |
